In patent publication US4929751A, “Vinyl tricarbonyl compounds and methods of making the same” (Yale University, priority 1987, dated 1990):
Like-named read-outs stand apart in the source and are kept apart here.

How the values were obtained:
Experiment in all cases: growth inhibition of tumor cell line
Type in all cases: cell-based
[1] = tested on: H146 (small cell lung cancer); settings: Homo sapiens, NCI-H146
Source text: (§1) t-Butyl 2,3-dioxo-pent-4-enoate hydrate (A) was contacted with various cell lines as indicated on Table 1 hereinbelow in the column designated as "CELL" or "TUMOR". […]
(§2) Table 1 reports and illustrates the results obtained by testing t-butyl 2,3-dioxo-pent-4-enoate hydrate. The concentration of this compound found to inhibit the growth of each cell line listed under "CELL" by 50% is reported under "LOG(IC50)" as the logarithm of the concentration. The units of concentration are either molarity in which case an "M" is shown in parentheses next to the LOG(IC50) label, or micrograms per ml, in which case a "W" (for weight) is shown in parenthesis. The cell line names are grouped by disease type and the disease type names are listed on the far left.

[2] = tested on: H322 (nonsmall cell lung cancer); settings: NCI-H322
Source text: as §1, §2

[3] = tested on: H520 (nonsmall cell lung cancer); settings: Homo sapiens, NCI-H520
Source text: as §1, §2

[4] = tested on: HCC-2998 (colon); settings: Homo sapiens
Source text: as §1, §2

[5] = tested on: MCF-7 (breast); settings: Homo sapiens
Source text: as §1, §2

[6] = tested on: MOLT-4 (LEU); settings: Homo sapiens, status R (not acceptable test)
Source text: as §1, §2

[7] = tested on: P388/ADR; settings: Mus musculus
Source text: as §1, §2

[8] = tested on: SK-MEL5 (melanoma); settings: Homo sapiens
Source text: as §1, §2

[9] = tested on: SNB-19 (central nervous system); settings: Homo sapiens
Source text: as §1, §2

SMILES: C=CC(=O)C(O)(O)C(=O)OC(C)(C)C [t-butyl 2,3-dioxo-pent-4-enoate hydrate]
- IC50 ([1]; H146, logarithm of the concentration inhibiting growth by 50%, read-out: LOG(IC50) (converted)): 126 µM
- IC50 ([1]; read-out: IC-50 MEAN): 124 µM
- IC90 [2]: 246 µM
- IC50 ([2]; H322, logarithm of the concentration inhibiting growth by 50%, read-out: LOG(IC50) (converted)): 50.1 µM
- IC50 ([2]; read-out: IC-50 MEAN): 48.7 µM
- IC50 ([3]; H520, logarithm of the concentration inhibiting growth by 50%, read-out: LOG(IC50) (converted)): 100 µM
- IC50 ([3]; read-out: IC-50 MEAN): 105 µM
- IC50 ([4]; HCC 2998, HCC2998, logarithm of the concentration inhibiting growth by 50%, read-out: LOG(IC50)): > 50.1 µM
- IC50 ([4]; HCC-2998, read-out: IC-50 MEAN): 52 µM
- IC90 ([5]; MCF7): 232 µM
- IC50 ([5]; MCF7, logarithm of the concentration inhibiting growth by 50%, read-out: LOG(IC50) (converted)): 100 µM
- IC50 ([5]; MCF7, read-out: IC-50 MEAN): 98.1 µM
- IC90 [6]: 244 µM
- IC90 [7]: 244 µM
- IC50 ([7]; P388/AD, logarithm of the concentration inhibiting growth by 50%, read-out: LOG(IC50) (converted)): 126 µM
- IC50 ([7]; read-out: IC-50 MEAN): 118 µM
- IC90 ([8]; SK-MEL-5): 222 µM
- IC50 ([8]; SK-MEL-5, logarithm of the concentration inhibiting growth by 50%, read-out: LOG(IC50) (converted)): 63.1 µM
- IC50 ([8]; SK-MEL-5, read-out: IC-50 MEAN): 74.2 µM
- IC90 [9]: 243 µM
- IC50 ([9]; logarithm of the concentration inhibiting growth by 50%, read-out: LOG(IC50) (converted)): 100 µM
- IC50 ([9]; read-out: IC-50 MEAN): 95.2 µM
